Our source for the inhibition and IC50 values is ChEMBL document CHEMBL4321885, “Biomimetic Macrocyclic Inhibitors of Human Cathepsin D: Structure-Activity Relationship and Binding Mode Analysis” (J Med Chem, 2020).

Active and inactive are the calls of the source. The rule behind the calls is not given here.

In general, IC50 refers to the concentration that inhibits the measured activity by half. High values mean a need for much substance, low ones inhibition by little substance.

Assay [1] deals with Beta-secretase 1 (Homo sapiens) (UniProt P56817). Kind of assay: Inhibition of recombinant human C-terminal 10His-tagged BACE1 expressed in mouse NS0 cells at 50 nM using Mca-Ser-Glu-Val-Asn-Leu-Asp-Ala-Glu-Phe-Arg-Lys(Dnp)-Arg-Arg as substrate preincubated for 10 mins followed by substrate addition and measured by FRET assay.
The target in assay [2] is Protease (Human immunodeficiency virus 1) (UniProt Q9YQ12). Kind of assay: Inhibition of HIV1 protease at 5 uM using Abz-Tyr-Ile-Nle-Nph-Gln-Arg as substrate preincubated for 10 mins followed by substrate addition and measured by FRET assay.
The target is the same in assay [3]. The experiment in a line: Inhibition of HIV1 protease at 50 nM using Abz-Tyr-Ile-Nle-Nph-Gln-Arg as substrate preincubated for 10 mins followed by substrate addition and measured by FRET assay.
The target of assay [4] is Cathepsin D (Homo sapiens, UniProt P07339). Kind of assay: Inhibition of human placenta CatD using Abz-Lys-Pro-Ala-Glu-Phe-Nph-Ala-Leu as substrate preincubated for 10 mins followed by substrate addition and measured by FRET assay.
In assay [5] the target is Saccharopepsin (Saccharomyces cerevisiae S288c) (UniProt P07267). Kind of assay: Inhibition of Baker's yeast proteinase A at 50 nM using Abz-Lys-Pro-Ala-Glu-Phe-Nph-Ala-Leu as substrate preincubated for 10 mins followed by substrate addition and measured by FRET assay.
The target in assay [6] is T1, Renin (Homo sapiens) (UniProt P00797).
T1 sequence (whole entry): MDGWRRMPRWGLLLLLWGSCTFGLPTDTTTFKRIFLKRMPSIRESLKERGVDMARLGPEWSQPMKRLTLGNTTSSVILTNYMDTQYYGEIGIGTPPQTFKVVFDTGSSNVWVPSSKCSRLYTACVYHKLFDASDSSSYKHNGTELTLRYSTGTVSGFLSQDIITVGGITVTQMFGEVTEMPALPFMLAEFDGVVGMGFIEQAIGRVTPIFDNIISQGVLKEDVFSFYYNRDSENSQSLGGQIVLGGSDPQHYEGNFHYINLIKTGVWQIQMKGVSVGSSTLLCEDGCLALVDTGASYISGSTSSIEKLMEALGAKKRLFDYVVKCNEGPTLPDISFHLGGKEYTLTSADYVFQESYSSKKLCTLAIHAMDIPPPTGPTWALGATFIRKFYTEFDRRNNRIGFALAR
Kind of assay: Inhibition of recombinant human N-terminal FLAG-tagged renin (67 to 406 residues) expressed in HEK cells at 50 nM using Arg-Glu(EDANS)-Ile-His-Pro-Phe-His-Leu-Val-Ile-His-Thr-Lys(Dabcyl)-Arg as substrate preincubated for 10 mins followed by substrate addition and measured by FRET assay.

In assay [7] the target is Beta-secretase 1 (Homo sapiens) (UniProt P56817). Kind of assay: Inhibition of recombinant human C-terminal 10His-tagged BACE1 expressed in mouse NS0 cells at 5 uM using Mca-Ser-Glu-Val-Asn-Leu-Asp-Ala-Glu-Phe-Arg-Lys(Dnp)-Arg-Arg as substrate preincubated for 10 mins followed by substrate addition and measured by FRET assay.
The species entered for assay [8] is Sus scrofa. The experiment in a line: Inhibition of porcine pepsin at 50 nM using Abz-Lys-Pro-Ala-Glu-Phe-Nph-Ala-Leu as substrate preincubated for 10 mins followed by substrate addition and measured by FRET assay.
Assay [9] concerns the target T1, Renin (Homo sapiens). Kind of assay: Inhibition of recombinant human N-terminal FLAG-tagged renin (67 to 406 residues) expressed in HEK cells at 5 uM using Arg-Glu(EDANS)-Ile-His-Pro-Phe-His-Leu-Val-Ile-His-Thr-Lys(Dabcyl)-Arg as substrate preincubated for 10 mins followed by substrate addition and measured by FRET assay.
In assay [10] the test system is Ixodes ricinus. The experiment in a line: Inhibition of Ixodes ricinus CatD expressed in Escherichia coli BL21(DE3) at 50 nM using Abz-Lys-Pro-Ala-Glu-Phe-Nph-Ala-Leu as substrate preincubated for 10 mins followed by substrate addition and measured by FRET assay.

Sequence of Cathepsin D (P07339 65-162 limits assumed): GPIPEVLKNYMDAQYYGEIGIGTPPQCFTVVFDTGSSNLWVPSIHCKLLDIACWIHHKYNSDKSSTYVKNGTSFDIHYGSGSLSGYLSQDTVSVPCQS
Sequence of Cathepsin D (P07339 169-412 limits assumed): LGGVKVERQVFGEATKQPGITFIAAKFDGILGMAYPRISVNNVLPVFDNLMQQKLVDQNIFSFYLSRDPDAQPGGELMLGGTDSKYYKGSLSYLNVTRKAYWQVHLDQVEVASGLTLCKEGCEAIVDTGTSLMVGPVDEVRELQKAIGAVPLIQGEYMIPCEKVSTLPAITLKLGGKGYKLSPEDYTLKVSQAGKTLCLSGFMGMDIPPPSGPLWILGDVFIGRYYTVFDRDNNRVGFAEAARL
Sequence of Protease (Human immunodeficiency virus 1) (Q9YQ12 as listed by the source): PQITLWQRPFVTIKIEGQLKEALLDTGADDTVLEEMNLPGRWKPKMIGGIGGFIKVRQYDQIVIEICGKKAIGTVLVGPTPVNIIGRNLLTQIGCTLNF
Sequence of Saccharopepsin (Saccharomyces cerevisiae S288c) (P07267 whole entry): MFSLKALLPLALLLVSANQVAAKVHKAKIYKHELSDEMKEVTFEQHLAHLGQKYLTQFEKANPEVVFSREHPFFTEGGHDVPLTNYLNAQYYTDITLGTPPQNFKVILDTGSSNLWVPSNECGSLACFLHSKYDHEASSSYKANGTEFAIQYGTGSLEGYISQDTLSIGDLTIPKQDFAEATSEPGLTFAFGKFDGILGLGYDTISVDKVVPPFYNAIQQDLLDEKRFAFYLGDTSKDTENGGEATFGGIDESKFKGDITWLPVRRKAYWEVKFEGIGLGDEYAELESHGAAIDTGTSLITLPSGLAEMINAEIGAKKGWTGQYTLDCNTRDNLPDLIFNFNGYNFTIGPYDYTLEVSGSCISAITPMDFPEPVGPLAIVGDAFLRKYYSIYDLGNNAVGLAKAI
Sequence of Beta-secretase 1 (Homo sapiens) (P56817 whole entry): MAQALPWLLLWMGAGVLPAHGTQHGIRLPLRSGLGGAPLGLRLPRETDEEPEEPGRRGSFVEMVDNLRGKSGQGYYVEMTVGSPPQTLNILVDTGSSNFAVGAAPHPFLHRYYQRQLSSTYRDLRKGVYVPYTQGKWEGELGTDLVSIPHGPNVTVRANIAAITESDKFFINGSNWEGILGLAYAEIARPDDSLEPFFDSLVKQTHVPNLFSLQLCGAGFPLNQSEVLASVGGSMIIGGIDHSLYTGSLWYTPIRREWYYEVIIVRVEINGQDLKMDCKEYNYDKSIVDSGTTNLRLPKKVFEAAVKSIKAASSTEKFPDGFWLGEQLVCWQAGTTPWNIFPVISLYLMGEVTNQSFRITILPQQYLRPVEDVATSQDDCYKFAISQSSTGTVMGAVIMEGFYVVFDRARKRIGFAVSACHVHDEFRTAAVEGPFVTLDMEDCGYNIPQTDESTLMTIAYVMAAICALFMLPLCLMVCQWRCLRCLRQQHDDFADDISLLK

With `CC[C@@H](C)[C@@H]1NC(=O)C[C@H](O)[C@H](Cc2ccccc2)NC(=O)CCCCCCCCCCCNC1=O`, the inhibition result in assay [1], in assay [3] and in assay [6] was “inactive” each time. The inhibition result in assay [2], in assay [5], in [7], in assay [8], in assay [9] and in assay [10] was “Active” throughout. Also, in assay [4], it took 0.0038 µM to reach half-maximal inhibition (IC50).

As for `CC(C)[C@@H]1NC(=O)C[C@H](O)[C@H](Cc2c[nH]c3ccccc23)NC(=O)CCCCCCCCCCCNC1=O`, the inhibition entry in assay [1], in assay [3] and in assay [6] was “inactive” each time. Also, the inhibition entry in assay [2], in [5], in assay [7], in [8], in assay [9] and in assay [10] was “Active” throughout. This compound displayed an IC50 in [4] of 0.19 µM.

For the compound `O=C1C[C@H](O)[C@H](Cc2ccccc2)NC(=O)CCCCCCCCCCCNC(=O)[C@H](Cc2ccccc2)N1`, the inhibition entry in [1], in assay [3] and in assay [6] was “inactive” in each case. In addition, the inhibition entry in assay [2], in [5], in assay [7], in assay [8], in [9] and in assay [10] was “Active” each time. Moreover, the IC50 in assay [4] came to 0.015 µM.

With `O=C1C[C@H](O)[C@H](Cc2ccccc2)NC(=O)CCCCCCCCCCCNC(=O)[C@H](c2ccccc2)N1`, the inhibition entry in assay [1], in assay [3] and in assay [6] was “inactive” each time. In addition, the inhibition entry in assay [2], in assay [5], in [7], in [8], in [9] and in assay [10] was “Active” in each case. For the same compound, it took 0.027 µM to reach half-maximal inhibition in [4] (IC50).

With `CC(C)[C@@H]1NC(=O)C[C@H](O)[C@H](CC2CCCCC2)NC(=O)CCCCCCCCCCCNC1=O`, the inhibition result in [1], in assay [3] and in assay [6] was “inactive” in each case. The inhibition result in assay [2], in assay [5], in assay [7], in [8], in [9] and in [10] was “Active” each time. In assay [4], this compound came in with an IC50 of 0.009 µM.

For `CC(C)[C@@H]1NC(=O)C[C@H](O)[C@H](Cc2ccc(Cl)c(Cl)c2)NC(=O)CCCCCCCCCCCNC1=O`, the inhibition result in assay [1], in [3] and in assay [6] was “inactive” throughout. The inhibition entry in assay [2], in assay [5], in assay [7], in [9] and in assay [10] was “Active” throughout. This compound also came in with an IC50 in assay [4] of 0.0042 µM.

In the case of `CC(C)[C@@H]1NC(=O)C[C@H](O)[C@H](Cc2ccc(OCc3ccccc3)cc2)NC(=O)CCCCCCCCCCCNC1=O`, the inhibition result in assay [1], in assay [3] and in assay [6] was “inactive” each time. The inhibition entry in assay [2], in assay [5], in assay [7], in assay [9] and in assay [10] was “Active” throughout. Further, the IC50 in assay [4] is 0.055 µM.

Regarding `CC(=O)NCCCC[C@@H]1NC(=O)C[C@H](O)[C@H](Cc2ccccc2)NC(=O)CCCCCCCCCCCNC1=O`, the inhibition result in [1], in assay [3] and in assay [6] was “inactive” throughout. Besides, the inhibition entry in assay [2], in assay [5], in assay [7], in assay [8], in assay [9] and in [10] was “Active” throughout. The compound further came in with an IC50 in [4] of 0.016 µM.

For the compound `CC(C)C[C@@H]1NC(=O)CCCCCCCCCCCNC(=O)[C@H](C(C)C)NC(=O)C[C@@H]1O`, the inhibition entry in assay [1], in assay [3] and in [6] was “inactive” each time. For the same compound, the inhibition entry in assay [2], in [5], in [7], in [8], in assay [9] and in assay [10] was “Active” throughout. In [4], this compound showed an IC50 of 0.022 µM.

For the compound `CC(C)[C@@H]1NC(=O)C[C@H](O)[C@H](Cc2ccc(F)c(F)c2)NC(=O)CCCCCCCCCCCNC1=O`, the inhibition entry in [1], in [3] and in [6] was “inactive” each time. In addition, the inhibition result in assay [2], in assay [5], in assay [7], in assay [9] and in [10] was “Active” each time. For the same compound, in [4], the IC50 was determined as 0.0031 µM.

As to `CC(C)[C@@H]1NC(=O)NC[C@H](O)[C@H](Cc2ccccc2)NC(=O)CCCCCCCCCCCNC1=O`, the inhibition entry in [1], in assay [3] and in assay [6] was “inactive” in each case. Also, the inhibition entry in [2], in assay [5], in assay [7], in assay [9] and in assay [10] was “Active” each time. Also, the IC50 in [4] came out at 0.021 µM.

For `CC(C)[C@@H]1NC(=O)CC[C@H](Cc2ccccc2)NC(=O)CCCCCCCCCCCNC1=O`, the inhibition result in [1], in assay [3] and in [6] was “inactive” in each case. Moreover, the inhibition entry in assay [2], in assay [5], in [7], in assay [9] and in assay [10] was “Active” each time. The compound also displayed an IC50 in assay [4] of 2 µM.

Take `CC(C)[C@@H]1NC(=O)C[C@H](O)[C@H](Cc2ccc(F)cc2)NC(=O)CCCCCCCCCCCNC1=O`: the inhibition result in assay [1], in assay [3] and in assay [6] was “inactive” throughout. Further, the inhibition entry in assay [2], in [5], in assay [7], in [9] and in assay [10] was “Active” throughout. This compound also displayed an IC50 in assay [4] of 0.0047 µM.

`CC(C)[C@@H]1NC(=O)C[C@H](O)[C@H](Cc2ccccc2)NC(=O)CCCCCCCCCCCNC1=O`: the inhibition entry in [1], in [3] and in assay [6] was “inactive” in each case. The inhibition result in assay [2], in assay [5], in assay [7], in [9] and in [10] was “Active” throughout. In assay [4], this compound gave an IC50 of 0.0058 µM.
